Reference: ChEMBL document CHEMBL1127727, “Synthesis and structure-activity relationships of novel retinoid X receptor-selective retinoids” (J Med Chem, 1994)

Key:
[1] = biological target: T1, Retinoic acid receptor gamma (Homo sapiens, UniProt P13631); assay: Effective concentration against retinoid receptor isoform (RAR gamma) expressed in CV-1 cells; format: cell-based
T1 sequence (P13631 whole entry): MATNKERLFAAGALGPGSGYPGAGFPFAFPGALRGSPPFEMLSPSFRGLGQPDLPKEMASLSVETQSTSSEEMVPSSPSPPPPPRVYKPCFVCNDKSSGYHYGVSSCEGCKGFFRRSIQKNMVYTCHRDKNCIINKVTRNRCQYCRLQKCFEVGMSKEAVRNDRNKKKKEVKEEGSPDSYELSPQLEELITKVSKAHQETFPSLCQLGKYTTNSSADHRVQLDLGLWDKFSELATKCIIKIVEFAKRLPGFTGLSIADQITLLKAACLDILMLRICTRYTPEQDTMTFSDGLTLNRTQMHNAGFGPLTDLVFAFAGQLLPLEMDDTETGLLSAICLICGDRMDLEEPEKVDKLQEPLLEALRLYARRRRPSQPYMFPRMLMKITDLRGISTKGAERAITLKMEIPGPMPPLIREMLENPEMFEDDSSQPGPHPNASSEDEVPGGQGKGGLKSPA

[2] = biological target: T1, Retinoic acid receptor gamma; assay: Tested for binding affinity against [3H]-ATRA binding to retinoid receptor isoform (RAR gamma) expressed in baculovirus
[3] = biological target: T2, Retinoic acid receptor alpha (Homo sapiens, UniProt P10276); assay: Inhibition of [3H]-ATRA binding to baculovirus expressed retinoid receptor RAR alpha
T2 sequence (P10276 whole entry): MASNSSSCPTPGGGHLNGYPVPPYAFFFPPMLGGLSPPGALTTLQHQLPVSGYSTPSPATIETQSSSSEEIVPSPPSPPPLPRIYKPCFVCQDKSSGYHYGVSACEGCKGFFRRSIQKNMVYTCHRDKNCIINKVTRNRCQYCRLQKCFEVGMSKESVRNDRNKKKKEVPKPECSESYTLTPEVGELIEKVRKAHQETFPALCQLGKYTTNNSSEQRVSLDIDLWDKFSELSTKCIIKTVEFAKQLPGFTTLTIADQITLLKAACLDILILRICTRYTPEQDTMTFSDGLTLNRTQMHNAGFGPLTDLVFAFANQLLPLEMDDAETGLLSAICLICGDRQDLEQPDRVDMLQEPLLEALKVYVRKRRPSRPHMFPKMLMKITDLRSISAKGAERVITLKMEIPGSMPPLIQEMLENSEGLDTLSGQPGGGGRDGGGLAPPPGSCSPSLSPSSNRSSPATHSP

[4] = biological target: T3, Retinoic acid receptor RXR-alpha (Homo sapiens, UniProt P19793)
T3 sequence (P19793 whole entry): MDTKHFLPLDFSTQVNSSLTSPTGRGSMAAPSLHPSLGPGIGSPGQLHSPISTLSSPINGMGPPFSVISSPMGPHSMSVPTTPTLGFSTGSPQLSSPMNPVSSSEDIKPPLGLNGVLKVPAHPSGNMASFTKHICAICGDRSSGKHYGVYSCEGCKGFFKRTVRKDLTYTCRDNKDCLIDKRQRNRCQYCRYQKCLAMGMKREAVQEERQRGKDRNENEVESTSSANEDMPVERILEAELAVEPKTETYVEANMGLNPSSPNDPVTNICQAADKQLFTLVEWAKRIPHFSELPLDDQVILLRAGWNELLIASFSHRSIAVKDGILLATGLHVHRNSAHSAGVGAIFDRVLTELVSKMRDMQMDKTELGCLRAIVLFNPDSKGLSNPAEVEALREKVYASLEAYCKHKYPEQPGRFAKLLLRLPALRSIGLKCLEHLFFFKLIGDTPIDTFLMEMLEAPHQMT
Description: Inhibition of [3H]9-cis-RA binding to baculovirus expressed retinoid receptor RXR alpha

[5] = biological target: T4, Retinoic acid receptor RXR-gamma (Mus musculus, UniProt P28705); assay: Effective concentration against retinoid receptor isoform (RXR gamma) expressed in CV-1 cells; format: cell-based
T4 sequence (P28705 whole entry): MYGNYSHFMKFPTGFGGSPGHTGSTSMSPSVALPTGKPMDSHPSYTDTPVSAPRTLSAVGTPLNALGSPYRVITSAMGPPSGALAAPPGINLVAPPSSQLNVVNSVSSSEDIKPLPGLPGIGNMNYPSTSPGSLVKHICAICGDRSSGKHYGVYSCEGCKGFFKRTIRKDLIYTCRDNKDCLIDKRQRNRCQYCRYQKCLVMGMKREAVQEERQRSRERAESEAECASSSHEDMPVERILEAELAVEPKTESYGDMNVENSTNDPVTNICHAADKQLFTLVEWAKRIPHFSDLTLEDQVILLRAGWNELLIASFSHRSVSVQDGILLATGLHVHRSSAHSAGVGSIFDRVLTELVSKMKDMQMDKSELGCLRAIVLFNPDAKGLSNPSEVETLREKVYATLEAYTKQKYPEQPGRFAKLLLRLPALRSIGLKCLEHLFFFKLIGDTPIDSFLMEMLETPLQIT

[6] = biological target: T5, Retinoic acid receptor beta (Homo sapiens, UniProt P10826); assay: Inhibition of [3H]ATRA binding to baculovirus expressed retinoid receptor RAR beta
T5 sequence (P10826 whole entry): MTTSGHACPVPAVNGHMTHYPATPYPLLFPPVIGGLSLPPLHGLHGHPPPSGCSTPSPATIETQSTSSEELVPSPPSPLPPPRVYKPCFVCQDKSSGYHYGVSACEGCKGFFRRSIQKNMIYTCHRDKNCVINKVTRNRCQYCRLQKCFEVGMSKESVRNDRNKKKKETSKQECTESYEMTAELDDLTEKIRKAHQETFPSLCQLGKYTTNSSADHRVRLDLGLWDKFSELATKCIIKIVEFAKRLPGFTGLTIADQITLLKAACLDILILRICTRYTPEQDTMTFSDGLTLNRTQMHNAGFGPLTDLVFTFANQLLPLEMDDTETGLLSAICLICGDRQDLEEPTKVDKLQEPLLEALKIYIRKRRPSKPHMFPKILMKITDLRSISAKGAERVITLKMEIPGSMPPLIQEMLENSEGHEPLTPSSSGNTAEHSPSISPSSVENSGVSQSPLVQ

[7] = biological target: T3, Retinoic acid receptor RXR-alpha; remark: listed apart in the source
Description: Effective concentration against retinoid receptor isoform (RXR alpha) expressed in CV-1 cells

[8] = biological target: T5, Retinoic acid receptor beta; assay: Effective concentration against retinoid receptor isoform (RAR beta) expressed in CV-1 cells; format: cell-based
[9] = biological target: T6, Retinoic acid receptor RXR-beta (Mus musculus, UniProt P28704); assay: Inhibition of [3H]9-cis-RA binding to baculovirus expressed retinoid receptor RXR beta
T6 sequence (P28704 whole entry): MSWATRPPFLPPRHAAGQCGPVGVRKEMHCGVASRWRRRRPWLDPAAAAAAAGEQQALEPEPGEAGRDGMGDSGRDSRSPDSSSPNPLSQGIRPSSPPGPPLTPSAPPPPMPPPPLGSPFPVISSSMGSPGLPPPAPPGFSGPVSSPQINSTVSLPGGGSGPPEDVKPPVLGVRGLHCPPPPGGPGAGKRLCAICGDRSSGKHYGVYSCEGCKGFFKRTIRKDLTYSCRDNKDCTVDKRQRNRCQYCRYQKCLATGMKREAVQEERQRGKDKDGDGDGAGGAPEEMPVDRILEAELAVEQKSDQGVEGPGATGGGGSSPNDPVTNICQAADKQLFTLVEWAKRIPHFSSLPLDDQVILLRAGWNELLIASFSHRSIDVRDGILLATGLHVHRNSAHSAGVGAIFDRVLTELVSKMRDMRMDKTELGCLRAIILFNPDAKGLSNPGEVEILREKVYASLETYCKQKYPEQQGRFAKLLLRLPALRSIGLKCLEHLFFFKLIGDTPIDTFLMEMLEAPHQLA

[10] = biological target: T6, Retinoic acid receptor RXR-beta; assay: Effective concentration against retinoid receptor isoform (RXR beta) expressed in CV-1 cells; format: cell-based
[11] = biological target: T4, Retinoic acid receptor RXR-gamma; assay: Inhibition of [3H]9-cis-RA binding to baculovirus expressed retinoid receptor RXR gamma
[12] = biological target: T2, Retinoic acid receptor alpha; assay: Effective concentration against retinoid receptor isoform (RAR alpha) expressed in CV-1 cells; format: cell-based
[13] = biological target: T2, Retinoic acid receptor alpha; assay: Inhibition of [3H]ATRA binding to baculovirus expressed retinoid receptor RAR alpha

With `COc1cc2c(cc1C(=O)c1ccc(C(=O)O)cc1)C(C)(C)CCC2(C)C` as the compound, how does the EC50 [1] read?
The EC50 was > 10 µM.

What about the Kd [2] of the same compound?
Its Kd is > 1 µM.

What about the Kd [3] of the same compound?
The Kd was > 1 µM.

And the Kd [4]?
Its Kd is > 1 µM.

What about the EC50 [5] of the same compound?
Its EC50 is 2.19 µM.

And the Kd [6]?
The Kd was > 1 µM.

What about the EC50 [7] of the same compound?
The EC50 was 2.02 µM.

What about the EC50 [8] of the same compound?
The EC50 was > 10 µM.

What about the Kd [9] of the same compound?
The Kd was > 1 µM.

And the EC50 [10]?
The EC50 was 2.2 µM.

What about the Kd [11] of the same compound?
The Kd was > 1 µM.

And the EC50 [12]?
The EC50 was > 10 µM.

What does the source list for `CCCc1cc2c(cc1C(=O)c1ccc(C(=O)O)cc1)C(C)(C)CCC2(C)C`?
EC50 [1]: > 10 µM; Kd [2]: > 1 µM; Kd [3]: > 1 µM; Kd [4]: 0.269 µM; EC50 [5]: > 10 µM; Kd [6]: > 1 µM; EC50 [7]: > 10 µM; EC50 [8]: > 10 µM; Kd [9]: 0.371 µM; EC50 [10]: > 10 µM; Kd [11]: 0.704 µM; EC50 [12]: > 10 µM

What does the source list for `C=C(c1ccc(C(=O)O)cc1)c1cc2c(cc1OC)C(C)(C)CCC2(C)C`?
EC50 [1]: > 10 µM; Kd [2]: > 1 µM; Kd [4]: 0.096 µM; EC50 [5]: 0.23 µM; Kd [6]: > 1 µM; EC50 [7]: 0.083 µM; Kd [13]: > 1 µM; EC50 [8]: > 10 µM; Kd [9]: 0.191 µM; EC50 [10]: 0.198 µM; Kd [11]: 0.113 µM; EC50 [12]: > 10 µM
